pIC50: −log10 of the molar value. Converted amounts (≈) assume the structure as drawn.
Tests used:
CDK2:CCNE1 = CDK2:CCNE1 (Homo sapiens (Human), UniProt P24941); experiment: NanoBRET assay in MCF-7 cells, CDK2; type: cell-based; settings: transfected MCF-7 cells, 2 hours, n = 1 or average
Method: Compounds were tested in breast cancer cell line MCF-7 to assess inhibition of CDK1, CDK2, and CDK4 activity. […] The next day media were evacuated from the wells using the Bluewasher centrifugal plate washer (Bluecatbio) and 10 μL/well phenol red free OptiMEM was then added using a Multidrop Combi. […] Immediately after compound addition, a Tecan HP300 dispensor was used to dispense the relevant NanoBRET™ tracer to the CDK1 wells (12.5 nl, 400 μM, NanoBRET™ TE Tracer K-9), the CDK2 wells (12.5 nl, 200 μM, NanoBRET™ TE Tracer K-9), and the CDK4 wells (8 nl, 100 μM, NanoBRET™ TE Tracer K-7) and the plates were incubated for 2 hours at 37° C. and 5% CO2. […] The plates were incubated in subdued lighting for 10 minutes and then read on a Pherastar FS plate reader (BMG Technologies) using a NanoBRET™ filter module (460±80 nm/610 nm-LP). The ratio values were normalized to controls and the IC50 values of test compounds determined using Genedata Screener software.

CDK1:CCNB1 = CDK1:CCNB1 (Homo sapiens (Human), UniProt P06493); experiment: NanoBRET assay in MCF-7 cells, CDK1; type: cell-based; settings: NanoBRET, transfected MCF-7 cells, 2 hours; n = 1 or average; read-out: CDK1 IC50
Method: (§1) Compounds were tested in breast cancer cell line MCF-7 to assess inhibition of CDK1, CDK2, and CDK4 activity. MCF-7 cells transiently transfected with CDK1:CCNB1, CDK2:CCNE1, or CDK4:CCND1 were harvested at a density of 1E5 cells/mL in complete media, seeded 20 μL/well into 384-well Greiner 784080 plates using a Multidrop Combi, and incubated overnight at 37° C. and 5% CO2. The next day media were evacuated from the wells using the Bluewasher centrifugal plate washer (Bluecatbio) and 10 μL/well phenol red free OptiMEM was then added using a Multidrop Combi. […] Immediately after compound addition, a Tecan HP300 dispensor was used to dispense the relevant NanoBRET™ tracer to the CDK1 wells (12.5 nl, 400 μM, NanoBRET™ TE Tracer K-9), the CDK2 wells (12.5 nl, 200 μM, NanoBRET™ TE Tracer K-9), and the CDK4 wells (8 nl, 100 μM, NanoBRET™ TE Tracer K-7) and the plates were incubated for 2 hours at 37° C. and 5% CO2. The plates were allowed to cool for 10 minutes at room temperature and 5 μL/well of TE Nano-Glo®Substrate/Inhibitor at 2.4 μM and 1:500 respectively (N2162 Promega) was added. The plates were incubated in subdued lighting for 10 minutes and then read on a Pherastar FS plate reader (BMG Technologies) using a NanoBRET™ filter module (460±80 nm/610 nm-LP). The ratio values were normalized to controls and the IC50 values of test compounds determined using Genedata Screener software.

CDK4:CCND1 = CDK4:CCND1 (Homo sapiens (Human), UniProt P11802); experiment: NanoBRET assay in MCF-7 cells, CDK4; type: cell-based; settings: NanoBRET, transfected MCF-7 cells, 2 hours; n = 1 or average; read-out: CDK4 IC50
Method: as §1

[1] = test system: NPM phosphorylation (Thr199, CDK2-cyclin E complex); experiment: NPM phosphorylation imaging assay in MCF-7 cells; type: cell-based; settings: Homo sapiens, 4N DNA cells
Method: Compounds were tested to assess the effects of CDK2 inhibition in a cellular context. […] During the cell cycle, the CDK2-cyclin E complex phosphorylates NPM at Thr199 which is a prerequisite step for initiation of centrosome duplication.
The cells were fixed by addition of 40 μL/well of 8% paraformaldehyde and incubated at room temperature for 10 minutes. The plates were washed three times with 50 μL/well PBS using a Biotek EL406 plate washer and then permeabilized for 10 minutes at room temperature in 0.3% Triton X100 in PBS. After washing as before, the plates were blocked using 30 μL/well of 2% BSA (w/v) in PBS-T for at least 30 minutes at room temperature. […] Cells containing 4N DNA were selected using the Hoechst staining. Phospho-NPM levels were normalized to controls and the IC50 values of test compounds determined using Genedata Screener software.

[2] = test system: POLR2A Ser2 phosphorylation (CDK9); experiment: POLR2A Ser2 phosphorylation imaging assay in MCF-7 cells; type: cell-based; settings: Homo sapiens, MCF7, 2 h, MCF-7 cells, 2 hours; read-out: POLR2A Ser2 phosphorylation IC50
Method: Compounds were tested to assess their effect on CDK9 activity in a cellular context. […] During the cell cycle, CDK9 is a component of a multiprotein complex that phosphorylates POLR2A Ser2 which results in transcription elongation.
[…] were fixed by addition of 40 μL/well of 8% paraformaldehyde and incubated for 10 minutes at room temperature. The plates were washed three times with 50 μL/well PBS using a Biotek EL406 plate washer and then permeabilized for 10 minutes at room temperature in 0.3% Triton X100 in PBS. After washing as before, the plates were blocked using 30 μL/well of 2% BSA (w/v) in PBS-T for over 30 minutes at room temperature. […] After washing in PBS as before, leaving each well in 40 μL of PBS, the plates were sealed and imaged on a Cell Insight imaging system (Thermo) with a 10× objective and 2 fields of view per well. POLR2A Ser2levels were normalized to controls and the IC50 values of test compounds determined using Genedata Screener software.

MCF-7 cells = experiment: Cellular proliferation EdU assay, MCF-7; type: cell-based; settings: Homo sapiens, MCF7, 48 h, EdU assay, two days; read-out: MCF-7 IC50
Method: (§2) Compounds were tested to assess inhibition of cellular proliferation in the breast cancer cell line MCF-7 and the CCNE1-amplified ovarian cell line OVCAR3.
(§3) MCF-7 and OVCAR3 cells in RPMI supplemented with 10% Fetal bovine serum were seeded into 384-well plates (Greiner, Kremsmunster, Austria; 781091), 30 μL/well, using a WellMate. The MCF7 and OVCAR3 cells were seeded at 800 and 1200 cells/well, respectively. Test compounds were added to the wells using an Echo 555 liquid handler and the plates were placed in incubator maintained at 37° C. and 5% CO2 and incubated for two days. On Day 2, an EdU assay was performed following the manufacturer's protocol (Thermo Fisher, C10351). The cells were read on an Acumen eX3 instrument. The IC50 values of test compounds were determined in Genedata by assessing the ratio of signal intensity at 488 nm to the area of signal at 405 nm.

OVCAR3 cells = experiment: Cellular proliferation EdU assay, OVCAR3; type: cell-based, human; settings: Homo sapiens, OVCAR-3, 48 h, EdU assay, two days; read-out: OVCAR3 IC50
Method: as §2, §3

[3] = CLint assessment in human liver microsomes (HLM); type: in vitro ADME; settings: 1 μM
Method: After a preincubation with NADPH for 8 minutes, reactions were initiated through the addition of the test compound (final volume 250 μl) and incubated at 37° C. in a water bath for 30 minutes. […] Samples were shaken at 800 rpm for 2 minutes and centrifuged at 4000 rpm for 20 minutes at 4° C. to pellet precipitated protein. The supernatant fraction was diluted 1:5 with deionized water, shaken at 1000 rpm for 2 minutes, and further diluted 1:1 with deionized water. Samples were analyzed by LC-MS/MS. The t1/2 and the CLint of the compounds incubated in the LM, HLM, and HμREL assays as described above were calculated according to the following equations: […] where V (μl/×10^6 cells or mg protein) is the incubation volume (μl) divided by the number of cells (×10^6) or microsomal protein content (mg) in the incubation.

[4] = Aqueous thermodynamic solubility, shake-flask; type: physicochemical; settings: aqueous phosphate buffer, 25 °C, pH 7.4, aqueous buffer, thermodynamic from solid, phosphate buffer 0.1 M, pH 7.4, 24 hours
Method: The DMSO was evaporated and the dried compounds were equilibrated in glass vials in aqueous phosphate buffer (0.1 M, pH 7.4) for 24 hours at 25° C. under constant stirring. The portion with the dissolved compound was then separated from the remainder through a double centrifugation with a tip wash in between to ensure that no residues of the dried compound were interfering. The solutions were diluted with purified water before quantification using UPLC/MS/MS.

Chain of CDK1:CCNB1 (P06493 whole entry): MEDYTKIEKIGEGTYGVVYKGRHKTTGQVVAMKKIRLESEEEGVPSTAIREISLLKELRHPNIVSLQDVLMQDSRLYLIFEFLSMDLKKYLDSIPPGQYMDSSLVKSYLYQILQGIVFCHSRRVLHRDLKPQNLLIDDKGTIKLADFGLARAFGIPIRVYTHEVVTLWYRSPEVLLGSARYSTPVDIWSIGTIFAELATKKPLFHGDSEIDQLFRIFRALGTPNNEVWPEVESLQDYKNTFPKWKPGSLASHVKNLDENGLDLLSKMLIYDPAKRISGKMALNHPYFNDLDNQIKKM
Chain of CDK1:CCNB1 (P14635 whole entry partner): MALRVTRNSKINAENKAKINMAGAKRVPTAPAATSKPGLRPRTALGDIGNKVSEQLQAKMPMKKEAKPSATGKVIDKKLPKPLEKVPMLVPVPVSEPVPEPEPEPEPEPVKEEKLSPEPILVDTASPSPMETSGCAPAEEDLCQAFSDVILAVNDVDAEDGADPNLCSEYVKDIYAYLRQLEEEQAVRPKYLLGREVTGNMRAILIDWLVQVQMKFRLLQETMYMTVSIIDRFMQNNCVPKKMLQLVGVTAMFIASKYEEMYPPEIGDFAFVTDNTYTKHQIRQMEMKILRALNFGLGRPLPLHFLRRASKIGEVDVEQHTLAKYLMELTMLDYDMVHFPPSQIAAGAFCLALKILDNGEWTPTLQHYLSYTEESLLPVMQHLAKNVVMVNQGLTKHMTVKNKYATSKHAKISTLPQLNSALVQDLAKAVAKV
Chain of CDK4:CCND1 (P11802 whole entry): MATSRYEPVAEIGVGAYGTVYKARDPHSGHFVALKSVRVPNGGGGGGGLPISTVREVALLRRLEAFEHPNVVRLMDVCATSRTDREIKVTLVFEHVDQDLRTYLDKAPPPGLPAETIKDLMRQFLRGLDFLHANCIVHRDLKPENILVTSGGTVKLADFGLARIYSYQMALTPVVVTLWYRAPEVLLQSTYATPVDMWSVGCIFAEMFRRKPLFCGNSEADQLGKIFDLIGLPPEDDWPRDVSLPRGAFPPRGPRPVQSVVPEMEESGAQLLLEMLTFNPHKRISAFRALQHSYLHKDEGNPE
Chain of CDK4:CCND1 (P24385 whole entry partner): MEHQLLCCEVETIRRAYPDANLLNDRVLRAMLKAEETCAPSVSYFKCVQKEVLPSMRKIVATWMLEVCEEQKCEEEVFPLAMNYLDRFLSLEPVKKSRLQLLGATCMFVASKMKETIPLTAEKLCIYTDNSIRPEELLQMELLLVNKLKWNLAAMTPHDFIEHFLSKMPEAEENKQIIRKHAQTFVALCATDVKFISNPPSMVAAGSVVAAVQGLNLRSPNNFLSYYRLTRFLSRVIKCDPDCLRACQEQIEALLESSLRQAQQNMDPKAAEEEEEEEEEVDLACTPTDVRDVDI

| Structure (SMILES) | pIC50 (CDK2:CCNE1) | pIC50 (CDK1:CCNB1) | pIC50 (CDK4:CCND1) | pIC50 ([1]; MCF7, 2 hours) | pIC50 [2] | pIC50 (MCF-7 cells) | pIC50 (OVCAR3 cells) | HLM CLint [3] | solubility at 24 h [4] | pIC50 ([1]; MCF7, 2 h) |
| --- | --- | --- | --- | --- | --- | --- | --- | --- | --- | --- |
| CC[C@H](Nc1nc(N[C@H]2CCN(S(=O)(=O)NC[C@@H]3COCCO3)C2)c2ncn(CC)c2n1)[C@@H](C)O [Example 25, (S)—N—(((R)-1,4-dioxan-2-yl)methyl)-3-((9-ethyl-2-(((2R,3S)-2-hydroxypentan-3-yl)amino)-9H-purin-6-yl)amino)pyrrolidine-1-sulfonamide] | 7.16 | 5.40 | < 4.53 | 6.20 | < 4.52 | 5.85 | 6.19 | 61.6 µL/min/mg | 912 µM (≈ 468 µg/mL) | – |
| CC[C@H](Nc1nc(N[C@H]2CCN(S(=O)(=O)c3cn(C)cn3)C2)c2ncn(C(C)C)c2n1)[C@@H](C)O [Example 32, (2R,3S)-3-((9-isopropyl-6-(((S)-1-((1-methyl-1H-imidazol-4-yl)sulfonyl)pyrrolidin-3-yl)amino)-9H-purin-2-yl)amino)pentan-2-ol] | 7.09 | 5.65 | 4.55 | 6.22 | < 4.52 | 5.52 | 6.16 | 73 µL/min/mg | > 1000 µM | – |
| CC(C)[C@H](CO)Nc1nc(N[C@H]2CCN(S(=O)(=O)C3CC3)C2)c2ncn(C(C)C)c2n1 [Example 27, (R)-2-((6-(((S)-1-(cyclopropylsulfonyl)pyrrolidin-3-yl)amino)-9-isopropyl-9H-purin-2-yl)amino)-3-methylbutan-1-ol] | 7.96 | 5.85 | 5.47 | 6.57 | < 4.52 | 6.08 | 6.47 | >300 µL/min/mg | 39.8 µM (≈ 18 µg/mL) | – |
| CC[C@H](Nc1nc(N[C@H]2C[C@@H](C)N(S(C)(=O)=O)C2)c2ncn(C(C)C)c2n1)[C@@H](C)O [Example 37, (2R,3S)-3-((9-isopropyl-6-(((3S,5R)-5-methyl-1-(methylsulfonyl)-pyrrolidin-3-yl)amino)-9H-purin-2-yl)amino)pentan-2-ol] | 7.21 | 5.34 | < 4.53 | 6.06 | < 4.52 | 5.55 | 5.89 | 143 µL/min/mg | 414 µM (≈ 182 µg/mL) | – |
| CC[C@H](Nc1nc(N[C@H]2CCN(S(N)(=O)=O)C2)c2ncn(CC)c2n1)[C@@H](C)O [Example 9, (S)-3-((9-ethyl-2-(((2R,3S)-2-hydroxypentan-3-yl)amino)-9H-purin-6-yl)amino)pyrrolidine-1-sulfonamide] | 7.00 | 5.66 | 4.69 | – | < 4.52 | 5.98 | 6.31 | 13.4 µL/min/mg | > 1000 µM | 6.36 |
| CCn1cnc2c(N[C@H]3CCN(S(=O)(=O)NC)C3)nc(-c3cccc4c3CNC4=O)nc21 [Example 1, (S)-3-((9-ethyl-2-(1-oxoisoindolin-4-yl)-9H-purin-6-yl)amino)-N-methylpyrrolidine-1-sulfonamide] | 7.77 | 6.63 | 4.92 | – | 4.88 | 5.70 | 6.57 | >300 µL/min/mg | 7 µM (≈ 3.2 µg/mL) | 6.26 |
| CC(C)n1cnc2c(N[C@H]3CCN(S(C)(=O)=O)C3)nc(NC(CO)C3CCCC3)nc21 (stereo partly drawn) [Example 15, 2-cyclopentyl-2-((9-isopropyl-6-(((S)-1-(methylsulfonyl)pyrrolidin-3-yl)amino)-9H-purin-2-yl)amino)ethan-1-ol] | 7.66 | 5.92 | 5.59 | – | < 4.52 | 6.04 | 6.25 | >300 µL/min/mg | 132 µM (≈ 59.6 µg/mL) | 6.64 |
| CCNS(=O)(=O)N1CC[C@H](Nc2nc(N[C@@H](CO)C3CC3)nc3c2ncn3C(F)F)C1 [Example 14, (S)-3-((2-(((R)-1-cyclopropyl-2-hydroxyethyl)amino)-9-(difluoromethyl)-9H-purin-6-yl)amino)-N-ethylpyrrolidine-1-sulfonamide] | 8.22 | 7.01 | 6.00 | – | 5.38 | 6.95 | 7.29 | 38 µL/min/mg | 320 µM (≈ 147 µg/mL) | 7.39 |

From US20250197425A1, “2,6,9-TRISUBSTITUTED PURINES” (ASTRAZENECA AB, priority 2022, published 2025)
